Assay results: patent US20250101446A1, “METHOD FOR GENETIC TRANSFORMATION OF PLANT ORGANELLE GENOME AND USES THEREOF” (Solar Grants Biotechnology Inc., priority 2022, published 2025)

Assays:
in vitro = conditions: human
[1] = tested on: human NSCLC cell line NCI-H1792; assay: IL-6 secretion by NCI-H1792 cells incubated with NSP10-derived peptides (ELISA); format: cell-based; conditions: peptide 24 h
SARS-COV-2 = format: cell-based; conditions: at 200 µM concentration
[2] = tested on: human NSCLC cell line NCI-H1792; assay: Attenuation of P1-induced IL-6 secretion in NCI-H1792 cells by pre-treatment with plant-produced cytokines (ELISA); format: cell-based; conditions: control protein bearing an identical His-tag
[3] = tested on: human metastatic breast cancer cell line MDA-MB-231; assay: IL-6 secretion by MDA-MB-231 cells (P1 stimulation, plantakine pre-incubation; ELISA); format: cell-based
Method: IL-6 secretion by the human metastatic breast cancer cell line MDA-MB-231 into the conditioned media was measured by ELISA. The cells were pre-incubated for 3 h in the presence of plant-produced recombinant IL-38 or IL-37b at the indicated concentrations (ng/ml) prior to stimulation with peptide P1 (10 mM). PBS (1×) was added to the control. Shown are the average results of 3 independent experiments. ** P<0.01; * P<0.05, compared with the control.
Correct folding of plant-produced IL-38 and IL-37b anti-inflammatory cytokines was assessed by enzyme-linked immunosorbent assay (ELISA) using the DuoSet Human IL-38/IL-1F10 kit (R&D systems) and the Human IL-37/IL-1F7 uncoated ELISA kit (Invitrogen), respectively, following the instructions of the manufacturers. Secreted IL-6 was assessed using the Human IL-6 Uncoated ELISA kit (Invitrogen).

CC[C@H](C)[C@H](NC(=O)[C@H](CCCNC(=N)N)NC(=O)[C@H](CS)NC(=O)[C@H](CCCNC(=N)N)NC(=O)[C@H](CS)NC(=O)[C@H](Cc1ccc(O)cc1)NC(=O)[C@H](CC(C)C)NC(=O)[C@H](CS)NC(=O)[C@H](CS)NC(=O)[C@H](CO)NC(=O)[C@H](C)NC(=O)CNC(=O)CNC(=O)[C@H](Cc1ccccc1)NC(=O)CNC(=O)[C@H](CO)NC(=O)CNC(=O)[C@H](CCCNC(=N)N)NC(=O)[C@H](CCCNC(=N)N)NC(=O)[C@H](CCCNC(=N)N)NC(=O)[C@H](CCC(N)=O)NC(=O)[C@H](CCCNC(=N)N)NC(=O)[C@H](CCCNC(=N)N)NC(=O)[C@H](CCCCN)NC(=O)[C@H](CCCCN)NC(=O)[C@H](CCCNC(=N)N)NC(=O)CNC(=O)[C@H](Cc1ccc(O)cc1)NC(C)=O)C(=O)N[C@@H](CC(=O)O)C(=O)N[C@@H](Cc1c[nH]cn1)C(=O)N1CCC[C@H]1C(=O)N[C@@H](CC(N)=O)C(=O)N1CCC[C@H]1C(=O)N[C@@H](CCCCN)C(=O)NCC(=O)N[C@@H](Cc1ccccc1)C(=O)N[C@@H](CS)C(=O)N[C@@H](CC(=O)O)C(=O)N[C@@H](CC(C)C)C(=O)N[C@@H](CCCCN)C(=O)NCC(=O)N[C@@H](CCCCN)C(=O)N[C@@H](Cc1ccc(O)cc1)C(N)=O [P2]
CC50 (in vitro): > 200 µM | stimulation / induction of IL-6 secretion (in words) [1]: no IL-6 induction | effect against the virus-infected cells (SARS-COV-2): no detectable effect

GFP: His-tag containing plant-produced Green Fluorescent Protein used as control protein [reference compound]
attenuation of P1-induced IL-6 expression (in words) [2]: did not result in any significant attenuation

YGRKKRRQRRRGSG (HIV-Tat peptide sequence) [TAT sequence peptide, 42, reference compound]
stimulation / induction of IL-6 secretion (in words) [1]: not

CC[C@H](C)[C@H](NC(=O)[C@H](Cc1c[nH]cn1)NC(=O)[C@H](CS)NC(=O)[C@H](CCCNC(=N)N)NC(=O)[C@H](CS)NC(=O)[C@H](Cc1ccc(O)cc1)NC(=O)[C@H](CC(C)C)NC(=O)[C@H](CS)NC(=O)[C@H](CS)NC(=O)[C@H](CO)NC(=O)[C@H](C)NC(=O)CNC(=O)CNC(=O)[C@H](Cc1ccccc1)NC(=O)CNC(=O)[C@H](CO)NC(=O)CNC(=O)[C@H](CCCNC(=N)N)NC(=O)[C@H](CCCNC(=N)N)NC(=O)[C@H](CCCNC(=N)N)NC(=O)[C@H](CCC(N)=O)NC(=O)[C@H](CCCNC(=N)N)NC(=O)[C@H](CCCNC(=N)N)NC(=O)[C@H](CCCCN)NC(=O)[C@H](CCCCN)NC(=O)[C@H](CCCNC(=N)N)NC(=O)CNC(=O)[C@H](Cc1ccc(O)cc1)NC(C)=O)C(=O)N[C@@H](CC(=O)O)C(=O)N[C@@H](Cc1c[nH]cn1)C(=O)N1CCC[C@H]1C(=O)N[C@@H](CC(N)=O)C(=O)N1CCC[C@H]1C(=O)N[C@@H](CCCCN)C(=O)NCC(=O)N[C@@H](Cc1ccccc1)C(=O)N[C@@H](CS)C(=O)N[C@@H](CC(=O)O)C(=O)N[C@@H](CC(C)C)C(=O)N[C@@H](CCCCN)C(=O)NCC(=O)N[C@@H](CCCCN)C(=O)N[C@@H](Cc1ccc(O)cc1)C(N)=O [P1]
CC50 (in vitro): 11 µM | stimulation of the intrinsic secretion of IL-6 ([1]; normalized to PBS control): > 4 fold | IL-6 secretion on treatment with peptide (in words) [3]: strongly increased
